What was measured:
glucocorticoid receptor = biological target: T1, glucocorticoid receptor (Homo sapiens, UniProt P04150); assay: Competitive binding of glucocorticoid receptor (LanthaScreen TR-FRET); conditions: final concentration 10 uM
T1 construct: 4× GR-LBD up to 4 nM, and 4× Tb anti-GST Antibody up to 8 nM; purchased Invitrogen PV6040
T1 sequence (P04150 524-758 limits assumed): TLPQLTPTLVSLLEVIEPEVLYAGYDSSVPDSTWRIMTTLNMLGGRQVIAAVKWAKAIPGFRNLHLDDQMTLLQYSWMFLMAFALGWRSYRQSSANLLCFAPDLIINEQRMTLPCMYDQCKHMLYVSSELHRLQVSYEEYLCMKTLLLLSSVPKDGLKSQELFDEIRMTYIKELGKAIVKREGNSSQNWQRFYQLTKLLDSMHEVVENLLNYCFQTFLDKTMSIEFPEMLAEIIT
Method: In order to confirm the selective inhibitory ability of 11β-HSD1 inhibitor, competitive binding between 11β-HSD1 inhibitor and glucocorticoid ligand was tested by using LanthaScreen TR-FRET Glucocorticoid Receptor Competitive Binding Assay (Invitrogen, PV6040). The test material was dissolved in DMSO (Sigma, 276855) up to a 100× concentration of its final concentration (10 uM), and then Complete Nuclear Receptor Buffer F (1× stabilizing peptide, 5 mM DTT, Nuclear Receptor Buffer F) was used to dilute the test material up to a concentration of 2×, 4× Fluormone™ GS1 Green up to 20 nM, 4× GR-LBD up to 4 nM, and 4× Tb anti-GST Antibody up to 8 nM.
In order to obtain 60 μl of a final product through a reaction, on a 96-well plate, 2× test material 30 μl, 4× Fluormone™ GS1 Green 15 μl, and 4× GR-LBD/Tb anti-GST Antibody 15 μl were mixed, and reacted for 1 hour. In a positive control group, instead of the test material, Dexamethasone (Sigma, D1756), known as a ligand for glucocorticoid receptor, was used, and in a maximum active control group, DMSO was used, instead of the test material. In a negative control group, instead of the test material, DMSO was used, instead of Fluormone™ GS1 Green, Complete Nuclear Receptor Buffer F was used. On a 384-well white plate, 20 μl each was plated. By using Time-Resolved program in Flexstation3, a fluorescence value was read after excitation ([…]), emission (515 nM/486 nM), Delay time (100 μs), and Integration time (1500 μs) were programmed. By using the obtained value, a value of 515 nM/486 nM was calculated, from which the value in the negative control group was subtracted. The degree of binding of the test material to glucocorticoid receptor of was calculated by the active value of the test material with respect to the active value (100%) in the maximum active control group.

mouse 11β-HSD1 = biological target: T2, mouse 11β-HSD1 (Mus musculus, UniProt P50172); assay: Enzyme activity analysis on mouse 11β-HSD1 (HTRF cortisol, liver microsomes); type: biochemical; conditions: second value of cell
T2 construct: 100 ug/ml human/mouse liver microsomes; from tissue; host or cells: mouse liver microsomes
Outline: (§1)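 Cortisol generated by mouse or human liver microsome 11β-HSD1 during 2 h at 37° C., measured by HTRF competition (cryptate anti-cortisol antibody, d2-cortisol, 2 h room temperature) against a cortisol standard curve. IC50 from percent inhibition versus no-compound control.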

human 11β-HSD1 = biological target: T3, human 11β-HSD1 (Homo sapiens, UniProt P28845); assay: Enzyme activity analysis on human 11β-HSD1 (HTRF cortisol, liver microsomes); type: biochemical; conditions: first value of cell
T3 construct: 100 ug/ml human/mouse liver microsomes; from tissue; host or cells: human liver microsomes
Outline: as §1

T2 sequence (P50172 whole entry): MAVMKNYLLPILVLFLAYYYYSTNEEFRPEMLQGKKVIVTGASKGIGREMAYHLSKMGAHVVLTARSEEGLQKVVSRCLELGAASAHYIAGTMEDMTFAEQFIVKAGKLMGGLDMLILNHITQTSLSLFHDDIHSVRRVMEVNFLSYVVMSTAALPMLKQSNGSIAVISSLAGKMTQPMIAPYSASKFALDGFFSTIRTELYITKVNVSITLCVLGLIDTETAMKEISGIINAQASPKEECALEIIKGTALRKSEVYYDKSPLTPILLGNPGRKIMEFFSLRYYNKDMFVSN
T3 sequence (P28845 whole entry): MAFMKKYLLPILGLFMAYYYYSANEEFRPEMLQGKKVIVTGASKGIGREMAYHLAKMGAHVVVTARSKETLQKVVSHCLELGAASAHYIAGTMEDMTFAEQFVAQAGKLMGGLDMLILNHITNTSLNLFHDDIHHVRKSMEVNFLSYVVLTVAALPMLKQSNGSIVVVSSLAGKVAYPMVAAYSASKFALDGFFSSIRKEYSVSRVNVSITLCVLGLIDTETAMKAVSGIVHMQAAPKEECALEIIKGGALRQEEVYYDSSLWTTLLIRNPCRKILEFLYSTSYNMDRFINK

CC(C)(NS(=O)(=O)c1ccccc1[N+](=O)[O-])C(=O)NC1C2CC3CC(C2)CC1C3 (centres unmarked) [compound 43, N-(adamantane-2-yl)-2-methyl-2-(2-nitrophenylsulfonamido)propanamide]
binding to glucocorticoid receptor (glucocorticoid receptor): did not bind to glucocorticoid receptor | IC50 (mouse 11β-HSD1): 0.085 µM | IC50 (human 11β-HSD1): 0.016 µM

CC(C)(NS(=O)(=O)c1ccccc1F)C(=O)NC1C2CC3CC1CC(C(N)=O)(C3)C2 (centres unmarked) [compound 85, N-4-(2-(2-fluorophenylsulfonamido)-2-methylpropanamido)adamantane-1-carboxyamide]
binding to glucocorticoid receptor (glucocorticoid receptor): did not bind to glucocorticoid receptor | IC50 (human 11β-HSD1): 0.039 µM

CC(C)(NS(=O)(=O)c1c(F)cccc1F)C(=O)NC1C2CC3CC1CC(C(N)=O)(C3)C2 (centres unmarked) [compound 89, N-4-(2-(2,6-difluorophenylsulfonamido)-2-methylpropanamido)adamantane-1-carboxyamide]
binding to glucocorticoid receptor (glucocorticoid receptor): did not bind to glucocorticoid receptor

CCN(C(C)(C)C(=O)NC1C2CC3CC1CC(C(N)=O)(C3)C2)S(=O)(=O)c1cccc(Cl)c1Cl (centres unmarked) [compound 212]
IC50 (mouse 11β-HSD1): 0.191 µM | IC50 (human 11β-HSD1): 0.024 µM

CCN(C(C)(C)C(=O)NC1C2CC3CC1CC(C(N)=O)(C3)C2)S(=O)(=O)c1c(F)cccc1F (centres unmarked) [compound 213, N-4-(2-(2,6-difluoro-N-ethylphenylsulfonamido)-2-methylpropanamido)adamantane-1-carboxyamide]
IC50 (mouse 11β-HSD1): 0.235 µM | IC50 (human 11β-HSD1): 0.005 µM

CCN(C(C)(C)C(=O)NC1C2CC3CC1CC(C(N)=O)(C3)C2)S(=O)(=O)c1cccc(Cl)c1C (centres unmarked) [compound 215]
IC50 (mouse 11β-HSD1): 0.284 µM | IC50 (human 11β-HSD1): 0.004 µM

CCN(C(C)(C)C(=O)NC1C2CC3CC1CC(C(N)=O)(C3)C2)S(=O)(=O)c1ccccc1[N+](=O)[O-] (centres unmarked) [compound 216]
IC50 (mouse 11β-HSD1): 0.974 µM | IC50 (human 11β-HSD1): 0.009 µM

CCN(C(C)(C)C(=O)NC1C2CC3CC1CC(C(N)=O)(C3)C2)S(=O)(=O)c1ccccc1Cl (centres unmarked) [compound 217]
IC50 (mouse 11β-HSD1): 0.098 µM | IC50 (human 11β-HSD1): 0.004 µM

CCCN(C(C)(C)C(=O)NC1C2CC3CC1CC(C(N)=O)(C3)C2)S(=O)(=O)c1ccccc1C(F)(F)F (centres unmarked) [compound 218, N-4-(2-(2-trifluoromethyl-N-propylphenylsulfonamido)-2-methylpropanamido)adamantane-1-carboxyamide]
IC50 (mouse 11β-HSD1): 0.462 µM | IC50 (human 11β-HSD1): 0.053 µM

CC(C)(NS(=O)(=O)c1ccccc1N)C(=O)NC1C2CC3CC1CC(C(N)=O)(C3)C2 (centres unmarked) [compound 219, N-4-(2-(2-aminophenylsulfonamido)-2-methylpropanamido)adamantane-1-carboxyamide]
IC50 (mouse 11β-HSD1): 0.117 µM | IC50 (human 11β-HSD1): 0.085 µM

NC(=O)C12CC3CC(C1)C(NC(=O)C1(NS(=O)(=O)c4ccccc4N)CCCCC1)C(C3)C2 (centres unmarked) [compound 220, N-4-(1-(2-aminophenylsulfonamido)cyclohexanecarboxyamido)adamantane-1-carboxyamide]
IC50 (mouse 11β-HSD1): 0.266 µM | IC50 (human 11β-HSD1): 0.032 µM

NC(=O)C12CC3CC(C1)C(NC(=O)C1(NS(=O)(=O)c4ccccc4N)CCC1)C(C3)C2 (centres unmarked) [compound 221, N-4-(1-(2-aminophenylsulfonamido)cyclobutanecarboxyamido)adamantane-1-carboxyamide]
IC50 (mouse 11β-HSD1): 0.151 µM | IC50 (human 11β-HSD1): 0.079 µM

CN(C1(C(=O)NC2C3CC4CC2CC(C(N)=O)(C4)C3)CCC1)S(=O)(=O)c1ccccc1N (centres unmarked) [compound 222, N-4-(1-(N-methyl-2-aminophenylsulfonamido)cyclobutanecarboxyamido)adamantane-1-carboxyamide]
IC50 (mouse 11β-HSD1): 0.004 µM | IC50 (human 11β-HSD1): 0.005 µM

CN(C(C)(C)C(=O)NC1C2CC3CC1CC(C(N)=O)(C3)C2)S(=O)(=O)c1ccccc1N (centres unmarked) [compound 223, N-4-(2-(2-amino-N-methylphenylsulfonamido)-2-methylpropanamido)adamantane-1-carboxyamide]
IC50 (mouse 11β-HSD1): 0.023 µM | IC50 (human 11β-HSD1): 0.011 µM

CCN(C(C)(C)C(=O)NC1C2CC3CC1CC(C(N)=O)(C3)C2)S(=O)(=O)c1ccccc1N (centres unmarked) [compound 224, N-4-(2-(2-amino-N-ethylphenylsulfonamido)-2-methylpropanamido)adamantane-1-carboxyamide]
IC50 (mouse 11β-HSD1): 0.154 µM | IC50 (human 11β-HSD1): 0.011 µM

CN(C(C)(C)C(=O)NC1C2CC3CC1CC(O)(C3)C2)S(=O)(=O)c1ccccc1N (centres unmarked) [compound 225]
IC50 (mouse 11β-HSD1): 0.083 µM | IC50 (human 11β-HSD1): 0.011 µM

COc1ccccc1S(=O)(=O)NC(C)(C)C(=O)NC1C2CC3CC1CC(C(N)=O)(C3)C2 (centres unmarked) [compound 226, 4-[2-(2-methoxy-benzenesulfonylamino)-2-methyl-propionylamino]-adamantane-1-carboxylic acid amide]
IC50 (mouse 11β-HSD1): 0.038 µM | IC50 (human 11β-HSD1): 0.062 µM

CCN(CC)C(=O)C12CC3CC(C1)C(NC(=O)C(C)(C)NS(=O)(=O)c1ccccc1Cl)C(C3)C2 (centres unmarked) [compound 227, 4-[2-(2-chloro-benzenesulfonylamino)-2-methyl-propionylamino]-adamantane-1-carboxylic acid diethylamide]
IC50 (mouse 11β-HSD1): > 2.5 µM | IC50 (human 11β-HSD1): > 2.5 µM

CC(C)NC(=O)C12CC3CC(C1)C(NC(=O)C(C)(C)NS(=O)(=O)c1ccccc1Br)C(C3)C2 (centres unmarked) [compound 228, 4-[2-(2-bromo-benzenesulfonylamino)-2-methyl-propionylamino]-adamantane-1-carboxylic acid isopropylamide]
IC50 (mouse 11β-HSD1): > 2.5 µM | IC50 (human 11β-HSD1): > 2.5 µM

CC(C)(NS(=O)(=O)c1ccccc1Br)C(=O)NC1C2CC3CC1CC(C(=O)NC1CC1)(C3)C2 (centres unmarked) [compound 229, 4-[2-(2-bromo-benzenesulfonylamino)-2-methyl-propionylamino]-adamantane-1-carboxylic acid cyclopropylamide]
IC50 (mouse 11β-HSD1): > 2.5 µM | IC50 (human 11β-HSD1): > 2.5 µM

CC(C)(NS(=O)(=O)c1ccccc1Cl)C(=O)NC1C2CC3CC1CC(C(=O)NCCO)(C3)C2 (centres unmarked) [compound 231, 4-[2-(2-chloro-benzenesulfonylamino)-2-methyl-propionylamino]-adamantane-1-carboxylic acid ethanolamide]
IC50 (mouse 11β-HSD1): > 2.5 µM | IC50 (human 11β-HSD1): > 2.5 µM

O=C(NCCO)C12CC3CC(C1)C(NC(=O)C1(NS(=O)(=O)c4ccccc4Cl)CCC1)C(C3)C2 (centres unmarked) [compound 232]
IC50 (mouse 11β-HSD1): > 2.5 µM | IC50 (human 11β-HSD1): > 2.5 µM

CC(C)(NS(=O)(=O)c1ccccc1Cl)C(=O)NC1C2CC3CC1CC(C(=O)NC1CCCCC1)(C3)C2 (centres unmarked) [compound 233, 4-[2-(2-chloro-benzenesulfonylamino)-2-methyl-propionylamino]-adamantane-1-carboxylic acid cyclohexylamide]
IC50 (mouse 11β-HSD1): > 2.5 µM | IC50 (human 11β-HSD1): > 2.5 µM

CC(C)NC(=O)C12CC3CC(C1)C(NC(=O)C(C)(C)NS(=O)(=O)c1ccccc1Cl)C(C3)C2 (centres unmarked) [compound 235, 4-[2-(2-chloro-benzenesulfonylamino)-2-methyl-propionylamino]-adamantane-1-carboxylic acid isopropylamide]
IC50 (mouse 11β-HSD1): > 2.5 µM | IC50 (human 11β-HSD1): > 2.5 µM

CC(C)NC(=O)C12CC3CC(C1)C(NC(=O)C1(NS(=O)(=O)c4ccccc4Cl)CCC1)C(C3)C2 (centres unmarked) [compound 236, 4-({1-[(2-chloro-benzenesulfonyl)-methyl-amino]-cyclobutanecarbonyl}-amino)-adamantane-1-carboxylic acid-isopropylamide]
IC50 (mouse 11β-HSD1): > 2.5 µM | IC50 (human 11β-HSD1): > 2.5 µM

CNC(=O)C12CC3CC(C1)C(NC(=O)C(C)(C)NS(=O)(=O)c1ccccc1Cl)C(C3)C2 (centres unmarked) [compound 237, 4-[2-(2-chloro-benzenesulfonylamino)-2-methyl-propionylamino]-adamantane-1-carboxylic acid methylamide]
IC50 (mouse 11β-HSD1): 0.437 µM | IC50 (human 11β-HSD1): 1.5 µM

CNC(=O)C12CC3CC(C1)C(NC(=O)C1(NS(=O)(=O)c4ccccc4Cl)CCC1)C(C3)C2 (centres unmarked) [compound 238]
IC50 (mouse 11β-HSD1): > 2.5 µM | IC50 (human 11β-HSD1): > 2.5 µM

N-4-(2-methoxy-6-fluoro-N-ethylphenylsulfonamido)-2-methylpropanamido)adamantane-1-carboxyamide [compound 214]
IC50 (mouse 11β-HSD1): 0.006 µM | IC50 (human 11β-HSD1): 0.012 µM
